Laboratory results reported in US20050148553A1, “Use of tigecycline, alone, or in combination with rifampin to treat osteomyelitis and/or septic arthritis” (priority 2003, published 2005).
≈ marks a conversion by molar mass, not a printed value. Where “and” joins values, the source holds several entries; their conditions need not be identical. Equal entries are not always repeated. Where two headings read alike, the source gives them in different places.

Legend:
[1] = system: methicillin-resistant S. aureus; assay: microbe, parasite or virus in culture; assay type: cell-based, Staphylococcus aureus; settings: Staphylococcus aureus, MRSA
Procedure: The minimum inhibitory concentrations (MIC) of tigecycline, vancomycin and rifampin were determined using an antibiotic two-fold tube-dilution method. The minimum bactericidal concentrations were also determined. The limits of sensitivity of this method were 25 μg/ml to 0.20 μg/ml.

[2] = system: vancomycin resistant E. faecium; settings: cited from earlier work
[3] = Pharmacokinetics and tolerability of intravenous tigecycline in humans; assay type: in vivo, human
[4] = Tigecycline in human serum, tissue and synovial fluid after one intravenous 100 mg dose (LC/MS/MS); assay type: in vivo; parameters: Calculated Concentration, serum: unit not given here
Procedure: The objective of this study was to determine the tissue and corresponding serum concentration of tigecycline at selected time points in lung, colon, gallbladder tissues, bone, and synovial fluid. Samples were taken from subjects scheduled for lung, colon, gallbladder, or bone surgery, or a lumbar puncture who were given a single dose of tigecycline administered intravenously.
Pre-specified tissue/fluid sampling of either lung, colon, gallbladder, bone, and synovial fluid was performed on each subject during surgery at 4 hours, 8 hours, 12 hours, or 24 hours after the start of a single dose of 100 mg tigecycline administered over 30 minutes. Serum was collected from all subjects at hour 0 (before the first dose), approximately 30 minutes (end of infusion), and at the time corresponding to tissue/fluid collections. Tissue and serum concentration was determined according to the method set forth below.
Samples of human serum and tissue from study subjects who had received tigecycline were analyzed according to methods that had been previously validated. Serum samples and synovial fluid (0.2 ml) were mixed with 0.6 ml internal standard in acetonitrile, the supernatant evaporated to dryness and the residue reconstituted in 200 microliters mobile phase. Aliquots (10 microliters) of the reconstituted samples were injected into an LC/MS/MS.
The data was acquired by and analyzed on PE SCIEX “Analyst” version 1.3 software. Linear regression, with 1/x^2 weighting was used to obtain the best fit of the data for the calibration curves. The lower limit of quantitation was 10 ng/ml for serum and synovial fluid samples, 10 ng/g for the colon and gall bladder samples, and 30 ng/g for the bone samples.
Tigecycline was measured in human serum using an LC/MS/MS method. The primary stock solution of tigecycline was prepared at 1 mg/ml by dissolving in methanol. A secondary stock solution was prepared from the primary stock solution by diluting to a concentration of approximately 40,000 ng/ml with acetonitrile. The stock solutions were stored at −20° C. when not in use. A primary internal standard solution of tert-butyl-d9-tigecycline was prepared at a concentration of 1 mg/ml in methanol. A secondary internal standard stock solution was prepared by diluting the primary stock solution to a concentration of 100 micrograms/ml in acetonitrile with 0.1% trifluoroacetate added. The primary and secondary stock solutions were stored at −20° C. The working internal standard was prepared by diluting to volume with acetonitrile/0.1% trifluoroacetate. The working internal standard was stored at 4° C. when not in use. On the day of analysis, the secondary stock solution was brought to room temperature before use to prepared the standard curve working solutions. The standard curve was prepared at approximately 2000, 1600, 1000, 500, 250, 100, 50, 20, and 10 ng/ml by serial dilution in blank human serum.
The extraction procedure was as follows: to 200 microliters of calibrator, quality control or sample was added 600 microliters of internal standard working solution and vortex mixed. The samples were centrifuged for 10 minutes at 13000 rpm to separate the layers and the supernatant was transferred to a culture tube. The samples were evaporated to dryness in a Speed Vac. The residues were reconstituted by sonicating in 200 microliters of mobile phase and 10 microliters was injected in the LC/MS/MS. […]

[5] = system: methicillin-resistant S. aureus
Procedure: Preparation of the Infective Media: S. aureus was incubated overnight in Mueller Hinton Broth (Difco Laboratories, Detroit, Mich.) medium spiked with 40 μg/ml oxacillin, at 37° C. The bacterial concentration of the culture was adjusted to 10^7 CFU's/ml.
Rabbit Infection Procedure: New Zealand white rabbits (Ray Nicholl's Rabbitry, Lumberton, Tex.), eight to 12 weeks old and weighing 2.0 to 3.5 kg, were utilized for the study. After anesthesia was given, an 18-gauge needle was inserted percutaneously through the lateral aspect of the left tibial metaphysis into the intramedullary cavity. Next, 0.15 ml of 5% sodium morrhuate (American Regent Laboratories, Inc., Shirley, N.Y.), 0.1 ml of S. aureus (10^7 CFU/ml), and 0.2 ml of sterile, normal saline, 0.9%, were injected sequentially.
Group 1 (control group): infected but left untreated for the duration of the study. Group 2: rabbits were treated for 4 weeks with subcutaneous vancomycin at 30 mg/kg twice daily. Group 3: rabbits were treated for 4 weeks with subcutaneous vancomycin at 30 mg/kg twice daily plus oral rifampin at 40 mg/kg twice daily in 0.5% methylcellulose. Group 4: rabbits were treated for 4 weeks with subcutaneous tigecycline at 14 mg/kg twice daily. Group 5: rabbits were treated for 4 weeks with subcutaneous tigecycline at the same dose as in the rabbits in Group 4, plus oral rifampin at 40 mg/kg twice daily in 0.5% methylcellulose. […] Group 6: rabbits were treated for 1 week with subcutaneous tigecycline at the same dose as in Group 4, but were sacrificed 3 hours after administration of the last dose. At that time, blood and infected bone samples were collected and tigecycline concentration was determined. Groups 1 to 5 were left untreated for 2 weeks after treatment phase of the experiment and sacrificed at 8 weeks after infection.
Radiographs of bilateral tibias were taken at initiation of therapy (2 weeks after infection), at the end of antibiotic therapy (6 weeks after infection), and at sacrifice (8 weeks after infection). Radiographs were scored according to a visual scale (Table 1) by three investigators, each blinded to the treatment group, and the grades were averaged.
After sacrifice, gross cultures were performed for right and left tibias. Quantitative counts of S. aureus, in CFUs per gram, of left tibial bone and marrow were determined for all study groups.
Culture Preparation: The bone marrow and the intramedullary canal of bilateral tibias were swabbed with sterile cotton tip applicators for gross cultures analysis of left tibias and quality assurance checks of right tibias. The inoculated applicator was streaked onto blood plates and then placed into 5 ml of sterile TSB. The plates and tubes were then incubated at 37° C. for 24 hours and growth and/or turbidity was recorded.
The bone marrow was placed into a sterile, 50 ml centrifuge tube and weighed. The bone fragments were broken into 0.5 cm^2 chips, placed into a sterile, 50 ml centrifuge tube, and the final product weighed. Normal sterile saline, 0.9%, was added in a 3 to 1 ratio (3 ml saline/gram of bone or marrow) and the suspensions were vortexed for 2 minutes. Six ten-fold dilutions of each suspension were prepared with sterile, normal saline, 0.9%. Twenty-microliter samples of each dilution, including the initial suspension, was plated, in triplicate, onto blood agar plates and incubated at 37° C. for 24 hours. CFUs were counted at the greatest dilution for each tibia sample.

[6] = system: methicillin-resistant Staphylococcus aureus; settings: 14 mg/kg bid; cited from earlier work
[7] = Adverse events and weight variance in infected treated rabbits
Text: All rabbits were monitored weekly for weight variance. […] The key for FIGS. 4A and B is as follows: Control=control group, no treatment; Vancomycin=subcutaneous vancomycin treated group; Vanco+Rifampin=subcutaneous vancomycin with oral rifampin treated group; Gar-936=subcutaneous Gar-936 treated group; Gar-936+Rifampin=subcutaneous Gar-936 with oral Rifampin treated group.

[8] = for ratio of AUC in tissue to AUC in plasma: bone, bone marrow, salivary gland, thyroid, spleen, kidney (each)
Procedure: Sprague-Dawley rats (18 males) were given carbon-14 tigecycline at a dosage of 3 mg/kg by 30-minute infusion. Concentrations or radioactivity were determined in tissues of 3 rats/time point at the end of the infusion and at 1, 8, 24, 72, and 168 hours after the end of infusion.

[9] = Mass balance study, 5 mg/kg intravenous dose; assay type: in vivo, Sprague-Dawley rats; settings: male rats
[10] = average grade, t=14 versus t=56 days
[11] = individual rabbits, left tibia, 8 weeks after infection

**Q.** For `CN(C)c1cc(NC(=O)CNC(C)(C)C)c(O)c2c1C[C@H]1C[C@H]3[C@H](N(C)C)C(O)=C(C(N)=O)C(=O)[C@@]3(O)C(O)=C1C2=O` [Tigecycline], which MBC ([1]; read-out: minimum bactericidal concentration (MBC)) is on record?
**A.** The MBC was 0.2 µg/mL (≈ 0.341 µM).

**Q.** What about the MIC ([1]; read-out: minimum inhibitory concentration (MIC), MRSA study strain, inoculum 10^6 CFU/ml) of the same compound?
**A.** Its MIC is < 0.2 µg/mL.

**Q.** And the MIC [2]?
**A.** The MIC was 0.125 µg/mL (≈ 0.213 µM).

**Q.** And the half-life ([3]; human, in vivo, intravenous, humans)?
**A.** The half-life was 40 to 60 h.

**Q.** What about the Vd ([3]; human, in vivo, intravenous, humans, read-out: volume of distribution at steady state) of the same compound?
**A.** Its Vd is 7 to 14 L/kg.

**Q.** And the dose tolerated ([3]; one-hour infusion, human subjects)?
**A.** Its dose tolerated is “up to 100 mg”.

**Q.** And the “dose resulting in gastrointestinal intolerance (nausea and vomiting) in all subjects” value ([3]; twice daily over nine days, 200 ml infusion over one hour, fed)?
**A.** The value was ≥ 75 mg.

**Q.** And the dose tolerated ([3]; twice daily, 200 ml infusion over one hour)?
**A.** Its dose tolerated is 25 to 50 mg.

**Q.** And the “Calculated Concentration, tissue” value ([4]; Lung, 4 to 24 hours after dose)?
**A.** Its value is 653 n2/2.

**Q.** And the concentration at 8 h ([4]; human, synovial fluid, intravenous, 100 mg, synovial fluid, 8 Hour, read-out: Calculated Concentration, synovial fluid)?
**A.** Its concentration at 8 h is 70.9 ng/mL.

**Q.** What about the concentration at 12 h ([4]; human, synovial fluid, intravenous, 100 mg, synovial fluid, 12 Hour, read-out: Calculated Concentration, synovial fluid) of the same compound?
**A.** The concentration at 12 h was 111 ng/mL.

**Q.** And the “Calculated Concentration, serum” value ([4]; serum, 8 Hour)?
**A.** The value was 198 {n&mll and 186 {n&mll and 133 {n&mll and 206 {n&mll.

**Q.** And the “Calculated Concentration, synovial fluid” value ([4]; synovial fluid, 12 Hour)?
**A.** The value was 65.0 ng/mL and 65.7 ng/mL and 62.8 ng/mL.

**Q.** What about the “radiographic improvement (grade)” value [5, 10] of the same compound?
**A.** Its value is 0.9+/−0.1.

**Q.** And the “radiographic improvement (percent)” value [5, 10]?
**A.** Its value is 40.9%.

**Q.** What about the “rabbits/samples positive for MRSA in bone” value ([5]; bone cultures at sacrifice) of the same compound?
**A.** The value was 1 out of 10 and one rabbit of 10.

**Q.** What about the “proportion of positive cultures in marrow” value ([5]; compared with 0.33 (5/15) in control group) of the same compound?
**A.** The value was 0.

**Q.** What about the “bacterial outcome in bone and marrow, in words” value ([5]; end of study, MRSA infected rabbits) of the same compound?
**A.** The value was “lower colony forming units in bone and marrow”.

**Q.** And the “Counts (CFU/gm) Bone” value [5, 11]?
**A.** Its value is 178.6 CFU/gm and 0 CFU/gm (9×).

**Q.** And the “Counts (CFU/gm) Marrow” value [5, 11]?
**A.** Its value is 0 CFU/gm.

**Q.** And the “rabbits infected in bone marrow” value ([5]; marrow cultures at sacrifice)?
**A.** Its value is “no infection”.

**Q.** And the “average radiographic grade versus control group” value ([5]; t=56 days, p<0.05)?
**A.** The value was “significantly lower”.

**Q.** And the “average bacterial concentration of the group” value ([5]; tibia bone)?
**A.** The value was 20 CFU/gram bone.

**Q.** What about the “efficacy compared with 40 mg/kg vancomycin” value [6] of the same compound?
**A.** Its value is “more effective”.

**Q.** And the “symptoms of gastric dysfunction” value ([7]; approximately 1.0-1.5 weeks post-antibiotic initiation)?
**A.** Its value is “mild to severe symptoms of gastric dysfunction”.

**Q.** And the mean weight gain ([7]; infected rabbits after antibiotic treatment)?
**A.** The mean weight gain was -0.05 kg.

**Q.** What about the “rabbits that died before completion of treatment” value ([7]; infected rabbits, 4 weeks treatment) of the same compound?
**A.** The value was 5.

**Q.** What about the “dosage causing relevant morbidity and mortality” value ([7]; rabbit model, data not shown) of the same compound?
**A.** The value was “higher than 14 mg/kg per day”.

**Q.** For `CN(C)c1cc(NC(=O)CNC(C)(C)C)c(O)c2c1C[C@H]1C[C@H]3[C@H](N(C)C)C(O)=C(C(N)=O)C(=O)[C@@]3(O)C(O)=C1C2=O` [[^14C]-Tigecycline], which “ratio of AUC in tissue to AUC in plasma” value [8] is on record?
**A.** Its value is “greater than 10”.

**Q.** What about the “ratio of AUC in tissue to AUC in plasma” value ([8]; listed as carbon-14 tigecycline) of the same compound?
**A.** The value was > 10.

**Q.** What about the “ratio of AUC in lung to AUC in plasma” value ([8]; lung) of the same compound?
**A.** The value was 4.4.

**Q.** And the recovery of radioactivity [9]?
**A.** Its recovery of radioactivity is 89.4±2.50%.
